We go through three compounds from US20250032426A1, “PHARMACEUTICAL COMPOSITIONS” (SpecNova LLC, priority 2021, published 2025).

The test addresses Human Dopamine Transporter (DAT) (Homo sapiens, UniProt Q01959). Put plainly: Human Dopamine Transporter (DAT) Binding (Antagonist Radioligand) Assay. Conditions: for % of Control Specific Binding (1st Test) / % of Control Specific Binding (2nd Test) / % Inhibition of Control Specific Binding / % of Control Specific Binding (mean of two tests): [3H]BTCP 4 nM radioligand; for % Inhibition of Control Specific Binding: cell membrane homogenates, 120 min at 4° C., test concentration not given; for level of inhibition in the dopamine transporter inhibitory assay (in words): qualitative statement in the description. The protocol: Human Dopamine Transporter (DAT) Binding (Antagonist Radioligand) Assay
Nonspecific binding is determined in the presence of 10 μM BTCP. Following incubation, the samples are filtered rapidly under vacuum through glass fiber filters (GF/B, Packard) presoaked with 0.3% PEI and rinsed several times with ice-cold 50 mM Tris-HCl using a 96-sample cell harvester (Unifilter, Packard). The filters are dried then counted for radioactivity in a scintillation counter (Topcount, Packard) using a scintillation cocktail (Microscint 0, Packard). The results are expressed as a percent inhibition of the control radioligand specific binding.

The structures appear in SMILES notation.

Chain of Human Dopamine Transporter (DAT) (Q01959 whole entry): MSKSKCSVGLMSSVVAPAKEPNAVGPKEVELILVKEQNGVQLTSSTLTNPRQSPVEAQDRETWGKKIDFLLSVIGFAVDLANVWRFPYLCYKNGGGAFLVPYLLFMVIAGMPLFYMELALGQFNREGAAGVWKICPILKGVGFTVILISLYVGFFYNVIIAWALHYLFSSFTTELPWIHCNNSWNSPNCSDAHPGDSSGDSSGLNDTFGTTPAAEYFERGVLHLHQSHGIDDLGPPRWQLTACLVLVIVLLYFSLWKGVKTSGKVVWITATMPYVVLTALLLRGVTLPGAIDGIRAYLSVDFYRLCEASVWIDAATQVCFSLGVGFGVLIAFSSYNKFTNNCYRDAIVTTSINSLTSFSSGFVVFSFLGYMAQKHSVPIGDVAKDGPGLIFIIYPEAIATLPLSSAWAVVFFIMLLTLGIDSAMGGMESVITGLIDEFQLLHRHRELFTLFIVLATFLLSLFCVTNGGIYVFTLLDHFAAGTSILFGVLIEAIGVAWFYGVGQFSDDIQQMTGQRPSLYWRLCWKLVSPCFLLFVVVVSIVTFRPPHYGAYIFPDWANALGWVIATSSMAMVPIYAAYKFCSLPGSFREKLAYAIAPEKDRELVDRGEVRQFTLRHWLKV

With `OC[C@@H](O)[C@@H](/C=C/c1ccc(O)cc1)c1ccc(O)c(O)c1` [Sequirin C, 4-[(1S,2E)-1-[(1S)-1,2-dihydroxyethyl]-3-(4-hydroxyphenyl)prop-2-en-1-yl]benzene-1,2-diol], the “% of Control Specific Binding (1st Test)” value is on record as 7.4%, the “% of Control Specific Binding (2nd Test)” value was 5.6%, the “% Inhibition of Control Specific Binding” value was 94% and the “% of Control Specific Binding (mean of two tests)” value is on record as 6.5%. Also, the “level of inhibition in the dopamine transporter inhibitory assay (in words)” value is listed as “extremely high level of inhibition”.
For `OC[C@@H](O)[C@@H](/C=C/c1ccc(O)cc1)c1ccc(O)cc1` [Agatharesinol, (2S,3S,4E)-3,5-bis(4-hydroxyphenyl)pent-4-ene-1,2-diol], in that order: 4.2%, 5%, 95%, 4.6% and “extremely high level of inhibition”.
On to `CC(C)=CCc1c(C2CCc3ccc(O)cc3O2)ccc(O)c1O` (stereo in doubt) [Kazinol U, 4-[(2S)-7-hydroxy-3,4-dihydro-2H-chromen-2-yl]-3-(3-methylbut-2-enyl) benzene-1,2-diol], for which the “% of Control Specific Binding (1st Test)” value was determined as 33.6%, the “% of Control Specific Binding (2nd Test)” value was 42.8%, the “% Inhibition of Control Specific Binding” value was 62% and the “% of Control Specific Binding (mean of two tests)” value was 38.2%. Besides, the “level of inhibition in the dopamine transporter inhibitory assay (in words)” value was “high level of inhibition”.
